Results reported in article PMC4134956 (Bioorganic & medicinal chemistry, 2014).

Experiments:
[1] = assay type: in vivo, NSG male mouse; conditions: for preferential tumor localization compared to lung: single injection
[2] = single injection at 10 mg/kg; non-radioactive version; cited from earlier work
[3] = cited from earlier work
[4] = single i.p. injection 20 nmol per animal, 24 hours
[5] = single i.p. injection 20 nmol, 7 days

SMILES: CC(=O)N[C@H](CCNC(=O)c1cc(NC(=O)c2cc(NC(=O)c3cc(NC(=O)c4nccn4C)cn3C)cn2C)cn1C)C(=O)Nc1cn(C)c(C(=O)Nc2cc(C(=O)Nc3cc(C(=O)Nc4cc(C(=O)NCCCN(C)CCCN[14C](=O)c5cccc([14C](=O)O)c5)n(C)c4)n(C)c3)n(C)c2)n1 [compound 1, ImPyPyPy-(R)^α-NHAcγ-ImPyPyPy]
- mean tumor concentration, multiple injection experiment ([1]; 3 injections days 1, 4, 7, 20 nmol i.p. each, harvest 24 h after last): 3.49 mg/kg
- accumulation upon repeated injection in tumor and organs assessed ([1]; 3 injections over 7 days): Some twofold accumulation
- enrichment in the tumor over all host tissues probed ([1]; 4 hour time point): some two-fold enrichment
- liver concentration lower than that in tumors ([1]; 24 hours, p < 0.01): 29%
- preferential tumor localization compared to lung ([1]; 24 hours): up to 12 fold
- mean tumor-associated concentration ([1]; LNCaP tumor, single i.p. injection 20 nmol per animal, harvest 24 hours): 1.48 mg/kg
- lung concentration [1, 4]: 0.12 mg/kg
- kidney tissue level [1, 5]: 0.05 mg/kg
- lung tissue level [1, 5]: 0.06 mg/kg
- tumor tissue level [1, 5]: 0.45 mg/kg
- liver toxicity [2]: not 1

SMILES: C[14C](=O)N[C@H](CCNC(=O)c1cc(NC(=O)c2cc(NC(=O)c3cc(NC(=O)c4nccn4C)cn3C)cn2C)cn1C)C(=O)Nc1cn(C)c(C(=O)Nc2cc(C(=O)Nc3cc(C(=O)Nc4cc(C(=O)NCCCN(C)CCCNC(=O)c5cccc(C(=O)O)c5)n(C)c4)n(C)c3)n(C)c2)n1 [compound 2]
- mean tumor and host tissue values compared with compound 1 ([1]; 24 hours, differently placed C-14 label): within experimental error
- preferential tumor localization compared to lung ([1]; 24 hours): up to 12 fold

SMILES: CN(CCCNC(=O)c1cc(NC(=O)c2cc(NC(=O)c3cc(NC(=O)c4nc(NC(=O)[C@H](N)CCNC(=O)c5cc(NC(=O)c6cc(NC(=O)c7cc(NC(=O)c8nccn8C)cn7C)cn6C)cn5C)cn4C)cn3C)cn2C)cn1C)CCCN[14C](=O)c1cccc([14C](=O)O)c1 [compound 3]
- lung levels relative to compound 1 ([1]; 24 hours): almost eightfold higher
- tumor-associated levels compared with compound 1 ([1]; 24 hours): within error
- host tissue levels compared with compound 1 ([1]; 24 hours, kidney, liver, lung): substantially higher levels
- lung concentration [1, 4]: 0.93 mg/kg
- liver toxicity [2]: resulted in liver toxicity

SMILES: COc1cccc2c1C(=O)c1c(O)c3c(c(O)c1C2=O)C[C@@](O)(C(=O)CO)C[C@@H]3O[C@H]1C[C@H](N)[C@H](O)[C@H](C)O1 [doxorubicin]
- liver levels higher than MCF7 xenograft levels ([3]; 2 hour timepoint): ~2 fold
- tumor localization value ([3]; MCF7 xenograft, i.p. 1.6 mg/kg, up to 24 hours after single injection): about 1 mg/kg
